From patent publication US20240270751A1, “Pyrazolopyridinone Compounds” (BeiGene Ltd., priority 2021, published 2024)

Assays:
[1] = molecular target: DGKα (Homo sapiens (Human), UniProt P23743); experiment: Biochemical DGK IC50 assay, DGKα ADP-Glo assay; conditions: 7.5 nM enzyme, 140 μM ATP, 80 μM DAG
Outline: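 ADP-Glo read-out with full-length DGKα on DAG/PS lipid micelle substrate in 25 mM HEPES pH 7.0, 0.5 mM EDTA, 160 mM octyl β-D-glucopyranoside. Compound final concentrations spanned 1.55˜10000 nM or 23.3˜150000 nM.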

[2] = molecular target: DGKζ (Homo sapiens (Human), UniProt Q13574); experiment: Biochemical DGK IC50 assay, DGKζ ADP-Glo assay; conditions: 0.5 nM enzyme, 140 μM ATP, 80 μM DAG; read-out: DGKζ ADP-Glo assay IC50
Outline: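 Full-length human DGKζ, His-TEV tagged and purified from baculovirus-infected Sf9 cells, assayed by ADP-Glo with DAG/PS lipid micelle substrate prepared in 25 mM HEPES pH 7.0 with octyl glucoside. Final compound concentrations spanned 1.55–10000 nM or 23.3–150000 nM.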

DGKα, sequence (P23743 whole entry): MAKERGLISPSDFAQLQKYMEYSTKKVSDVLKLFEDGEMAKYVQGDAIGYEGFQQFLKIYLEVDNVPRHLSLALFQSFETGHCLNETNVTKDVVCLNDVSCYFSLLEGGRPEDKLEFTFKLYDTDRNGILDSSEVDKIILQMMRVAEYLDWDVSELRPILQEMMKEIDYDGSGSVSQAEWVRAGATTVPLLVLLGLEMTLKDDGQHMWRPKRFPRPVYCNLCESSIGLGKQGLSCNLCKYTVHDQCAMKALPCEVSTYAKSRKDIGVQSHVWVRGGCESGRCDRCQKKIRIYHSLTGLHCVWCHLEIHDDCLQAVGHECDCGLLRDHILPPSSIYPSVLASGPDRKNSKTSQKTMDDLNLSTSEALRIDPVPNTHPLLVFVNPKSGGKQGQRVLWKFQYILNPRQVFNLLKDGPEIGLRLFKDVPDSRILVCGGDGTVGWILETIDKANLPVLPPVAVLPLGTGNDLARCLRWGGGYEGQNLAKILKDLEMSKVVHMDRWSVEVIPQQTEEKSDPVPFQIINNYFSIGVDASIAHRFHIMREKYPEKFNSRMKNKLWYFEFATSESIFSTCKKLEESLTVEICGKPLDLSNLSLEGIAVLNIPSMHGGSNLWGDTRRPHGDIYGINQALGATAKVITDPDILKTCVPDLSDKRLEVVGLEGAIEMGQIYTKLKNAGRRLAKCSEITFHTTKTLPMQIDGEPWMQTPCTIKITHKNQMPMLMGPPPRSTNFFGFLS
DGKζ, sequence (Q13574 other isoform, or with tags, fused parts or gaps): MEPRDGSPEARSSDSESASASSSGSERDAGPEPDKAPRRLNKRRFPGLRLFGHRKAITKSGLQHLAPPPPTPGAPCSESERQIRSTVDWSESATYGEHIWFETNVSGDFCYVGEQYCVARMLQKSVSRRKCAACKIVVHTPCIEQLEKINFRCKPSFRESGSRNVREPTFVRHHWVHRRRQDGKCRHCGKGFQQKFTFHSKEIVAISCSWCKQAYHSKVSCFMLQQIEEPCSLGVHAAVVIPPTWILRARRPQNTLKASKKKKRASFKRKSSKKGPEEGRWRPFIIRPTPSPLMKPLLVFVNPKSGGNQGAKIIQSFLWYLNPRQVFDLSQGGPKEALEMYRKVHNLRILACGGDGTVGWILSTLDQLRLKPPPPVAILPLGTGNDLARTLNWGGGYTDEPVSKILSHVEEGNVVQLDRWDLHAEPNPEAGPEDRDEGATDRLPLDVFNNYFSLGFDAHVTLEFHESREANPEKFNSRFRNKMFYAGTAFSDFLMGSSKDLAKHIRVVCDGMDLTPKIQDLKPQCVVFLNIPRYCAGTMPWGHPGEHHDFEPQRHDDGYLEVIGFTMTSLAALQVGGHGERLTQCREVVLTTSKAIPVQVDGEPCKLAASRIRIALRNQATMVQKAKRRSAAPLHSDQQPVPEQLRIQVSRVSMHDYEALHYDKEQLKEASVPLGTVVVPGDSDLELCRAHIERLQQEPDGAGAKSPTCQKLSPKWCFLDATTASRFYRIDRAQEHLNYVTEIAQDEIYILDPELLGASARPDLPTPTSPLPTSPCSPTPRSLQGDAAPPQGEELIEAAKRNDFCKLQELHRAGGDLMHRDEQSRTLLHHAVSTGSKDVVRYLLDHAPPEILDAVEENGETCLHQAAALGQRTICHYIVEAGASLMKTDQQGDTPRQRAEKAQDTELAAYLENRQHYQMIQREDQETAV

IC50 [1] [nM]	IC50 [2] [nM]	Structure (SMILES)
87000	369	CC(c1ccc2ncc(CO)nc2c1)N1C[C@H](C)N(c2cc(=O)n(C)c3cn(CC#N)nc23)C[C@H]1C (single isomer, unassigned) [Compound A309b]
116000	8290	[2H]C([2H])([2H])c1cnc2ccc(C(C)N3C[C@H](C)N(c4cc(=O)n(C)c5cn(CC#N)nc45)C[C@H]3C)cc2n1 (single isomer, unassigned) [Compound A313a]
61600	51	[2H]C([2H])([2H])c1cnc2ccc(C(C)N3C[C@H](C)N(c4cc(=O)n(C)c5cn(CC#N)nc45)C[C@H]3C)cc2n1 (single isomer, unassigned) [Compound A313b]
308	978	CC#CCn1cc2c(n1)c(N1C[C@@H](CC)N(C(C)c3ccc(C(F)(F)F)cc3F)C[C@@H]1CC)cc(=O)n2C (single isomer, unassigned) [Compound A334a]
893	> 10000	CC#CCn1cc2c(n1)c(N1C[C@@H](CC)N(C(C)c3ccc(C(F)(F)F)cc3F)C[C@@H]1CC)cc(=O)n2C (single isomer, unassigned) [Compound A334b]
173	4800	CC[C@H]1CN(C(C)c2ccc(C(F)F)cn2)[C@H](CC)CN1c1cc(=O)n(C)c2cn(CC#N)nc12 (single isomer, unassigned) [Compound A347a]
8	223	CC[C@H]1CN(C(C)c2ccc(C(F)F)cn2)[C@H](CC)CN1c1cc(=O)n(C)c2cn(CC#N)nc12 (single isomer, unassigned) [Compound A347b]
177	3880	CC[C@H]1CN(C(C)c2ccc(C(F)(F)F)cn2)[C@H](CC)CN1c1cc(=O)n(C)c2cn(CC#N)nc12 (single isomer, unassigned) [Compound A348a]
9	138	CC[C@H]1CN(C(C)c2ccc(C(F)(F)F)cn2)[C@H](CC)CN1c1cc(=O)n(C)c2cn(CC#N)nc12 (single isomer, unassigned) [Compound A348b]
490	462	CC[C@H]1CN(C(C)c2ccc(C)nc2)[C@H](CC)CN1c1cc(=O)n(C)c2cn(CC#N)nc12 (single isomer, unassigned) [Compound A349a]
1580	4240	CC[C@H]1CN(C(C)c2ccc(C)nc2)[C@H](CC)CN1c1cc(=O)n(C)c2cn(CC#N)nc12 (single isomer, unassigned) [Compound A349b]
274	167	CC[C@H]1CN(C(C)c2ccc(C(F)F)nc2)[C@H](CC)CN1c1cc(=O)n(C)c2cn(CC#N)nc12 (single isomer, unassigned) [Compound A351a]
32	190	CC[C@H]1CN(C(C)c2ccc(F)nc2)[C@H](CC)CN1c1cc(=O)n(C)c2cn(CC#N)nc12 (single isomer, unassigned) [Compound A353a]
797	2490	CC[C@H]1CN(C(C)c2ccc(F)nc2)[C@H](CC)CN1c1cc(=O)n(C)c2cn(CC#N)nc12 (single isomer, unassigned) [Compound A353b]
996	3130	CC[C@H]1CN(C(C)c2ncc(C(F)(F)F)cc2F)[C@H](CC)CN1c1cc(=O)n(C)c2cn(CC#N)nc12 (single isomer, unassigned) [Compound A354a]
130	260	CC[C@H]1CN(C(C)c2ncc(C(F)(F)F)cc2F)[C@H](CC)CN1c1cc(=O)n(C)c2cn(CC#N)nc12 (single isomer, unassigned) [Compound A354b]
10900	6420	CC[C@H]1CN(C(C)c2cnc(C)c(C)n2)[C@H](CC)CN1c1cc(=O)n(C)c2cn(CC#N)nc12 (single isomer, unassigned) [Compound A355a]

IC50 [1] [nM]	IC50 [2] [nM]	Structure (SMILES)
2150	176	CC[C@H]1CN(C(C)c2cnc(C)c(C)n2)[C@H](CC)CN1c1cc(=O)n(C)c2cn(CC#N)nc12 (single isomer, unassigned) [Compound A355b]
2450	2540	CC[C@H]1CN(C(C)c2cnc3c(n2)CCCC3)[C@H](CC)CN1c1cc(=O)n(C)c2cn(CC#N)nc12 (single isomer, unassigned) [Compound A357a]
646	12	CC[C@H]1CN(C(C)c2cnc3c(n2)CCCC3)[C@H](CC)CN1c1cc(=O)n(C)c2cn(CC#N)nc12 (single isomer, unassigned) [Compound A357b]
142	3800	CC[C@H]1CN(C(C)c2ccc(Cl)cn2)[C@H](CC)CN1c1cc(=O)n(C)c2cn(CC#N)nc12 (single isomer, unassigned) [Compound A360a]
2.7	134	CC[C@H]1CN(C(C)c2ccc(Cl)cn2)[C@H](CC)CN1c1cc(=O)n(C)c2cn(CC#N)nc12 (single isomer, unassigned) [Compound A360b]
922	2510	CC[C@H]1CN(C(C)c2ncc(OC(F)(F)F)cc2F)[C@H](CC)CN1c1cc(=O)n(C)c2cn(CC#N)nc12 (single isomer, unassigned) [Compound A362a]
33	300	CC[C@H]1CN(C(C)c2ncc(OC(F)(F)F)cc2F)[C@H](CC)CN1c1cc(=O)n(C)c2cn(CC#N)nc12 (single isomer, unassigned) [Compound A362b]
4900	6650	CC[C@H]1CN(C(C)c2cc3cnccc3cn2)[C@H](CC)CN1c1cc(=O)n(C)c2cn(CC#N)nc12 (single isomer, unassigned) [Compound A368a]
91	382	CC[C@H]1CN(C(C)c2cc3cnccc3cn2)[C@H](CC)CN1c1cc(=O)n(C)c2cn(CC#N)nc12 (single isomer, unassigned) [Compound A368b]
459	290	CC[C@H]1CN(C(C)c2ccc(CN3CCC(F)(F)CC3)nc2)[C@H](CC)CN1c1cc(=O)n(C)c2cn(CC#N)nc12 (single isomer, unassigned) [Compound A381a]
2090	2330	CC[C@H]1CN(C(C)c2ccc(CN3CCC(F)(F)CC3)nc2)[C@H](CC)CN1c1cc(=O)n(C)c2cn(CC#N)nc12 (single isomer, unassigned) [Compound A381b]
245	158	CC[C@H]1CN(C(C)c2ccc(CN3CCOCC3)cc2)[C@H](CC)CN1c1cc(=O)n(C)c2cn(CC#N)nc12 (single isomer, unassigned) [Compound A383a]
1320	1480	CC#CCn1cc2c(n1)c(N1C[C@@H](CC)N(C(C)c3ccc4c(c3)OC(F)(F)O4)C[C@@H]1C)cc(=O)n2C (single isomer, unassigned) [Compound A392a]
1070	> 10000	CC#CCn1cc2c(n1)c(N1C[C@@H](CC)N(C(C)c3ccc4c(c3)OC(F)(F)O4)C[C@@H]1C)cc(=O)n2C (single isomer, unassigned) [Compound A392b]
454	5400	CC#CCn1cc2c(n1)c(N1C[C@@H](CC)N(C(C)c3cnc4ccccc4n3)C[C@@H]1C)cc(=O)n2C (single isomer, unassigned) [Compound A394a]
30	125	CC#CCn1cc2c(n1)c(N1C[C@@H](CC)N(C(C)c3cnc4ccccc4n3)C[C@@H]1C)cc(=O)n2C (single isomer, unassigned) [Compound A394b]
